According to the NIST ThermoML archive (doi:10.1021/je100757w):
± gives the expanded uncertainty stated by the source.

Assay: xn = mol fraction of the nth substance listed
Conditions: for surface tension liquid-gas: Ring tensiometer; for mass density: 101.3 kPa, Liquid

COCCOCCOCCOCCOC [2,5,8,11,14-pentaoxapentadecane] + O
surface tension liquid-gas (298.15 K, x1 = 0.0016): 50.16 ± 0.86 mN/m | surface tension liquid-gas (298.15 K, x1 = 0.002): 48.89 ± 0.87 mN/m | surface tension liquid-gas (298.15 K, x1 = 0.0026): 47.04 ± 0.86 mN/m | surface tension liquid-gas (298.15 K, x1 = 0.0031): 46.37 ± 0.85 mN/m | surface tension liquid-gas (298.15 K, x1 = 0.0092): 43.11 ± 0.8 mN/m | surface tension liquid-gas (298.15 K, x1 = 0.0174): 41.23 ± 0.79 mN/m | surface tension liquid-gas (298.15 K, x1 = 0.0283): 40.1 ± 0.78 mN/m | surface tension liquid-gas (298.15 K, x1 = 0.057): 39.54 ± 0.78 mN/m | surface tension liquid-gas (298.15 K, x1 = 0.0746): 38.88 ± 0.77 mN/m | surface tension liquid-gas (298.15 K, x1 = 0.1026): 38.65 ± 0.77 mN/m | surface tension liquid-gas (298.15 K, x1 = 0.1497): 37.66 ± 0.77 mN/m | surface tension liquid-gas (298.15 K, x1 = 0.2264): 36.29 ± 0.77 mN/m | surface tension liquid-gas (298.15 K, x1 = 0.2862): 35.79 ± 0.77 mN/m | surface tension liquid-gas (298.15 K, x1 = 0.4268): 35.09 ± 0.78 mN/m | surface tension liquid-gas (298.15 K, x1 = 0.5414): 34.92 ± 0.8 mN/m | surface tension liquid-gas (298.15 K, x1 = 0.6144): 34.46 ± 0.81 mN/m | surface tension liquid-gas (298.15 K, x1 = 0.787): 34.2 ± 0.85 mN/m | surface tension liquid-gas (298.15 K, x1 = 0.8286): 34.19 ± 0.86 mN/m | surface tension liquid-gas (298.15 K, x1 = 0.9196): 33.91 ± 0.88 mN/m | surface tension liquid-gas (298.15 K, x1 = 1): 33.74 ± 0.89 mN/m | mass density (298.15 K, x1 = 0.0142): 1011.13 ± 0.29 kg/m3 | mass density (298.15 K, x1 = 0.0747): 1035.25 ± 0.38 kg/m3 | mass density (298.15 K, x1 = 0.1452): 1036.72 ± 0.42 kg/m3 | mass density (298.15 K, x1 = 0.2309): 1031.3 ± 0.47 kg/m3 | mass density (298.15 K, x1 = 0.2974): 1026.41 ± 0.52 kg/m3 | mass density (298.15 K, x1 = 0.4065): 1020.2 ± 0.65 kg/m3 | mass density (298.15 K, x1 = 0.5085): 1016.34 ± 0.81 kg/m3 | mass density (298.15 K, x1 = 0.5863): 1014.23 ± 0.96 kg/m3 | mass density (298.15 K, x1 = 0.6788): 1012.16 ± 1.2 kg/m3 | mass density (298.15 K, x1 = 0.8139): 1009.47 ± 1.5 kg/m3 | mass density (298.15 K, x1 = 0.854): 1008.76 ± 1.6 kg/m3 | mass density (298.15 K, x1 = 0.9569): 1007.43 ± 2 kg/m3 | mass density (298.15 K, x1 = 1): 1007.26 ± 2.1 kg/m3 | surface tension liquid-gas (308.15 K, x1 = 0.0014): 51 ± 0.86 mN/m | surface tension liquid-gas (308.15 K, x1 = 0.0023): 46.99 ± 0.83 mN/m | surface tension liquid-gas (308.15 K, x1 = 0.0032): 45.45 ± 0.82 mN/m | surface tension liquid-gas (308.15 K, x1 = 0.004): 44.21 ± 0.81 mN/m | surface tension liquid-gas (308.15 K, x1 = 0.009): 42.87 ± 0.8 mN/m | surface tension liquid-gas (308.15 K, x1 = 0.0175): 39.9 ± 0.78 mN/m | surface tension liquid-gas (308.15 K, x1 = 0.0275): 39.08 ± 0.77 mN/m | surface tension liquid-gas (308.15 K, x1 = 0.0539): 38.34 ± 0.77 mN/m | surface tension liquid-gas (308.15 K, x1 = 0.0715): 37.36 ± 0.76 mN/m | surface tension liquid-gas (308.15 K, x1 = 0.099): 37.28 ± 0.76 mN/m | surface tension liquid-gas (308.15 K, x1 = 0.1478): 35.51 ± 0.75 mN/m | surface tension liquid-gas (308.15 K, x1 = 0.2212): 34.95 ± 0.76 mN/m | surface tension liquid-gas (308.15 K, x1 = 0.3074): 34.22 ± 0.76 mN/m | surface tension liquid-gas (308.15 K, x1 = 0.4252): 33.85 ± 0.77 mN/m | surface tension liquid-gas (308.15 K, x1 = 0.5523): 33.58 ± 0.79 mN/m | surface tension liquid-gas (308.15 K, x1 = 0.6404): 33.32 ± 0.8 mN/m | surface tension liquid-gas (308.15 K, x1 = 0.7835): 33.05 ± 0.83 mN/m | surface tension liquid-gas (308.15 K, x1 = 0.814): 32.88 ± 0.84 mN/m | surface tension liquid-gas (308.15 K, x1 = 0.9479): 32.64 ± 0.87 mN/m | surface tension liquid-gas (308.15 K, x1 = 1): 32.45 ± 0.88 mN/m | mass density (308.15 K, x1 = 0.0142): 1006.56 ± 0.27 kg/m3 | mass density (308.15 K, x1 = 0.0747): 1027.26 ± 0.35 kg/m3 | mass density (308.15 K, x1 = 0.1452): 1027.67 ± 0.39 kg/m3 | mass density (308.15 K, x1 = 0.2309): 1022.01 ± 0.44 kg/m3 | mass density (308.15 K, x1 = 0.2974): 1017.12 ± 0.49 kg/m3 | mass density (308.15 K, x1 = 0.4065): 1010.92 ± 0.61 kg/m3 | mass density (308.15 K, x1 = 0.5085): 1007.06 ± 0.77 kg/m3 | mass density (308.15 K, x1 = 0.5863): 1004.92 ± 0.92 kg/m3 | mass density (308.15 K, x1 = 0.6788): 1002.83 ± 1.1 kg/m3 | mass density (308.15 K, x1 = 0.8139): 1000.17 ± 1.5 kg/m3 | mass density (308.15 K, x1 = 0.854): 999.47 ± 1.6 kg/m3 | mass density (308.15 K, x1 = 0.9569): 998.16 ± 1.9 kg/m3 | mass density (308.15 K, x1 = 1): 997.98 ± 2.1 kg/m3 | surface tension liquid-gas (318.15 K, x1 = 0.0013): 58.46 ± 0.93 mN/m | surface tension liquid-gas (318.15 K, x1 = 0.0019): 54.2 ± 0.89 mN/m | surface tension liquid-gas (318.15 K, x1 = 0.0024): 51.29 ± 0.89 mN/m | surface tension liquid-gas (318.15 K, x1 = 0.0033): 47.59 ± 0.86 mN/m | surface tension liquid-gas (318.15 K, x1 = 0.0098): 42.27 ± 0.79 mN/m | surface tension liquid-gas (318.15 K, x1 = 0.0187): 40.41 ± 0.78 mN/m | surface tension liquid-gas (318.15 K, x1 = 0.0314): 40.39 ± 0.78 mN/m | surface tension liquid-gas (318.15 K, x1 = 0.0584): 38.25 ± 0.77 mN/m | surface tension liquid-gas (318.15 K, x1 = 0.0748): 37.24 ± 0.76 mN/m | surface tension liquid-gas (318.15 K, x1 = 0.1022): 36.5 ± 0.76 mN/m | surface tension liquid-gas (318.15 K, x1 = 0.1482): 35.37 ± 0.75 mN/m | surface tension liquid-gas (318.15 K, x1 = 0.2219): 33.81 ± 0.75 mN/m | surface tension liquid-gas (318.15 K, x1 = 0.3152): 33.3 ± 0.75 mN/m | surface tension liquid-gas (318.15 K, x1 = 0.4328): 32.94 ± 0.77 mN/m | surface tension liquid-gas (318.15 K, x1 = 0.5259): 32.75 ± 0.78 mN/m | surface tension liquid-gas (318.15 K, x1 = 0.5974): 32.47 ± 0.79 mN/m | surface tension liquid-gas (318.15 K, x1 = 0.7667): 32.22 ± 0.82 mN/m | surface tension liquid-gas (318.15 K, x1 = 0.8249): 32.05 ± 0.83 mN/m | surface tension liquid-gas (318.15 K, x1 = 0.9324): 31.94 ± 0.85 mN/m | surface tension liquid-gas (318.15 K, x1 = 1): 31.71 ± 0.87 mN/m | mass density (318.15 K, x1 = 0.0142): 1001.29 ± 0.26 kg/m3 | mass density (318.15 K, x1 = 0.0747): 1019.04 ± 0.33 kg/m3 | mass density (318.15 K, x1 = 0.1452): 1018.51 ± 0.36 kg/m3 | mass density (318.15 K, x1 = 0.2309): 1012.58 ± 0.41 kg/m3 | mass density (318.15 K, x1 = 0.2974): 1007.72 ± 0.46 kg/m3 | mass density (318.15 K, x1 = 0.4065): 1001.56 ± 0.58 kg/m3 | mass density (318.15 K, x1 = 0.5085): 997.73 ± 0.75 kg/m3 | mass density (318.15 K, x1 = 0.5863): 995.58 ± 0.91 kg/m3 | mass density (318.15 K, x1 = 0.6788): 993.48 ± 1.1 kg/m3 | mass density (318.15 K, x1 = 0.8139): 990.83 ± 1.5 kg/m3 | mass density (318.15 K, x1 = 0.854): 990.15 ± 1.6 kg/m3 | mass density (318.15 K, x1 = 0.9569): 988.89 ± 1.9 kg/m3 | mass density (318.15 K, x1 = 1): 988.72 ± 2.1 kg/m3
